Measured values as given in publication PMC7801616, “Surface hydrophobics mediate functional dimerization of CYP121A1 of Mycobacterium tuberculosis” (Scientific Reports, 2021).

Experiments:
[1] = tested on: WT CYP121A1 heme thiolate-CO complex
CYP121A1 dimer = settings: cited from earlier work
Mtb = settings: cited from earlier work

For `O=C1N[C@@H](Cc2ccc(O)cc2)C(=O)N[C@H]1Cc1ccc(O)cc1` [cYY, cyclo-L-Tyr-L-Tyr], the “change of heme thiolate-CO complex stability with bound substrate” value [1] was “little change”.

For `Clc1ccccc1C(c1ccccc1)(c1ccccc1)n1ccnc1` [clotrimazole], the “effect on dimerization of the enzyme” value (CYP121A1 dimer) is given as “disrupts dimerization of the enzyme”.

In the case of `Clc1ccc(COC(Cn2ccnc2)c2ccc(Cl)cc2Cl)cc1` (centres unmarked) [econazole], the “effect on dimerization of the enzyme” value (CYP121A1 dimer) is given as “disrupts dimerization of the enzyme”.

For `CC(=O)N1CCN(c2ccc(OCC3COC(Cn4ccnc4)(c4ccc(Cl)cc4Cl)O3)cc2)CC1` (centres unmarked) [ketoconazole], the “effect of ligand on thermal stability” value (WT CYP121A1) is given as “modest increase in the stability” and the “inhibition of Mtb growth” value (Mtb) is given as “does not significantly inhibit Mtb growth”.
